In US9981983B2, “Thienopyranones as kinase inhibitors” (SignalRx Pharmaceuticals, Inc., priority 2008, dated 2018):
Read-outs that look alike come from different tables or passages of the source.

Key:
Assay type in all cases: cell-based
[1] = test system: AKT Ser473 phosphorylation in renal cell carcinoma (786-O) Cell Line; assay: pAKT Ser473 ELISA in 786-O cells stimulated by Bv8, VEGF, IGF; conditions: Homo sapiens, 786-0, 786-O, read-out: Concentration Required to Inhibit pAKT to Half-maximal Levels
Protocol: (§1) This was followed by the addition of IGF, VEGF and Bv8 to 0.1 μg/mL, 0.1 μg/mL and 2.5 μg/mL respectively for another 30 minutes before harvesting the cells and making cell lysates with RIPA buffer keeping on ice, pAKT levels were measured in duplicate samples with Cell Signaling's Ser473 pAKT ELISA kit. Optical density plate readings of pAKT levels were made at 450 nm (OD450 nm) and were normalized by total protein amount of the cell lysates. The dose of compound at which pAKT levels are reduced to 50% of the non-treatment level was calculated using GraphPad Prism4 software and is listed in Tables 4 and 5 below.

[2] = test system: AKT Ser473 phosphorylation in PC3 (prostate cancer) Cell Line; assay: pAKT Ser473 ELISA in PC3 cells stimulated by Bv8, VEGF, IGF; conditions: Homo sapiens, PC-3, PC3, read-out: Concentration Required to Inhibit pAKT to Half-maximal Levels
Protocol: as §1

H1299 cells = assay: Cellular proliferation (Example B method), H1299; conditions: Homo sapiens, NCI-H1299; H1299, non-small cell lung cancer
Protocol: PC3 cells were obtained from the American Type Culture Collection (ATCC, Manassas, Va., Cat.# CRL-1435) Two thousand cells from the prostate cancer line PC3 were placed in 50 μL of complete RPMI 1640 media (Invitrogen, Carlsbad, Calif., Cat.#22400-105) with 10% fetal bovine serum (Invitrogen, Carlsbad, Calif., Cat.#10438-026) into each well of 96 well cell culture plates in a hexaplicate sampling pattern. A 50 μL aliquot of test compound (prepared from stock test compounds in DMSO diluted into media) was added to the appropriate well such that the final concentrations of test compound were 200, 40, 8, 1.6, 0.32, 0.064, 0.0128, 0.00256, and 0 μM and the final DMSO concentration was less than or equal to 0.2%.
The plates were incubated for 72 hours 37° C. in an atmosphere of 5% CO2. At the end of this time a 10 μL aliquot of WST solution (Roche Applied Science, Mannheim, Germany) was added into each of the wells. Cells were exposed to the WST solution for 4 hours. A SpectraMax Plus spectrophotometric plate reader (Molecular Devices, Sunnydale, Calif.) was then used to measure the optical density at 450 nm (OD450 nm). Sigmoidal curves were drawn for the dose responses and IC50 values were calculated using the software package GraphPad Prism4 (GraphPad Software, Inc., San Diego, Calif.).
Several other cancer cell lines were obtained from ATCC and grown according to their recommendations and treated with test compounds to obtain the concentration of test compound that inhibited the cellular proliferation by 50% of no-treatment controls. These IC50 values (μM) are listed in Table 7 below obtained by the methods described in Example B: […]

Panc-1 (Pancreas) = assay: Cell proliferation MTS assay, Panc-1; conditions: Homo sapiens, 72 hours
Protocol: (§2) All cell lines were obtained from ATCC and cultured and plated according to ATCC recommendations. Cells were cultured in complete culture media containing 10% heat-inactivated fetal bovine serum (FBS, Mediatech, Inc.). For adherent cell lines, once cells reached 70% confluency, they were trypsinized and resuspended in phenol red free RPMI media (Mediatech, Inc.) plus 10% heat-inactivated FBS (assay buffer) and 100 μL aliquots were plated into each well of 96-well microtiter plates at a final density of 1,000-2,000 cells/well. Cells were incubated overnight at 37° C. in 5% CO2, and treated with test compounds on the next day. For suspension cell lines, cells were resuspended in assay buffer, plated into 96-well microtiter plates at a density of 10^4-10^5 cells/well/100 μL, and treatment was started on the same day. Cells were treated with vehicle (DMSO) and test compounds for 72 hours at concentration of 100, 70, 40, 20, 10, 5, 2.5, 1.25, 0.5 and 0.2 μM in four replicates at 37° C. in 5% CO2.

H1299 (Lung) = assay: Cell proliferation MTS assay, H1299; conditions: Homo sapiens, NCI-H1299, 72 hours
Protocol: as §2

pAKT in H1299 cells = assay: pAKT status DM50, H1299; conditions: Homo sapiens, NCI-H1299; H1299, non-small cell lung cancer
Protocol: PC3 cells were obtained from the American Type Culture Collection (ATCC, Manassas, Va., Cat.# CRL-1435). Two million cells from the prostate cancer line PC3 were placed into 6 cm culture dishes and allowed to grow in complete RPMI 1640 media (Invitrogen, Carlsbad, Calif., Cat.#22400-105) with 10% fetal bovine serum (Invitrogen, Carlsbad, Calif., Cat.#10438-026). After this time period the cells were serum starved for 5 hours followed by application of the test compound. Test compound was added as a DMSO (dimethyl sulfoxide) solution such that the final DMSO concentration in the cell media was less than or equal to 0.2% by volume After 30 minutes of exposure the growth factor stimulant, human IGF-1 (PeproTech, Inc., Rocky Hill, N.J., Cat.#100-11), was added to a final concentration of 0.1 μg/ml in each well. After 30 minutes of IGF-1 exposure, cells were removed from the media and cell lysates were prepared using RIPA Lysis buffer (Upstate, Lake Placid, N.Y., Cat.#20-188), keeping on ice. The pAKT serine 473 level was measured in duplicate samples of the cell lysates using commercially available assays such as the Pathscan® Sandwich ELISA kit for Ser473 pAKT (Cell Signaling, Danvers, Mass., Cat.#7160). A SpectraMax Plus spectrophotometric plate reader (Molecular Devices, Sunnydale, Calif.) was used to measure the optical density signal for pAKT at 450 nm (OD450 nm). The pAKT OD450 nm readings were normalized by total protein amount in the cell lysates determined by standard methods.
Concentrations of test compounds required to inhibit IGF stimulated pAKT levels to 50% of maximum levels in PC3 cells (termed DM50 for decreased maximum 50%) were calculated by inputting the dose responses in the software package GraphPad Prism4 (GraphPad Software, Inc., San Diego, Calif.).
Several other cancer cell lines were obtained from ATCC and grown according to the supplier's recommendations and treated with test compounds. DM50 values listed in Table 6 below were obtained by the methods described in Example A: […]

IC50 ([1]; stimulant Bv8): 380 nM
IC50 ([1]; stimulant IGF): 2600 nM
IC50 ([1]; stimulant PBS): 541 nM
IC50 ([1]; stimulant VEGF): 343 nM
IC50 ([2]; stimulant Bv8): 116 nM
IC50 ([2]; stimulant IGF): 888 nM
IC50 ([2]; stimulant PBS): 229 nM
IC50 ([2]; stimulant VEGF): 152 nM
IC50 (H1299 cells): 951 nM
IC50 (Panc-1 (Pancreas)): 18400 nM
IC50 (H1299 (Lung)): 2430 nM
IC50 (pAKT in H1299 cells): 886 nM
SMILES: O=c1cc(N2CCOCC2)oc2c(-c3ccc4c(c3)OCCO4)csc12 [Compound 28, 3-(2,3-dihydrobenzo[b][1,4]dioxin-6-yl)-5-morpholino-7H-thieno[3,2-b]pyran-7-one]
